The source made the active and inactive calls.
Experiments:
CAAX prenyl protease 2 [1] = molecular target: CAAX prenyl protease 2 (Saccharomyces cerevisiae S288c, UniProt Q03530); format: biochemical
CAAX prenyl protease 2 [2] = molecular target: CAAX prenyl protease 2 (Homo sapiens, UniProt Q9Y256); assay: human Rce1 protease inhibitors, dose response, biochemical, yeast membranes, quenched-peptide fluorescence, cherry-pick (AID 588849)
Trypsin = Trypsin (Sus scrofa, UniProt P00761); assay: porcine trypsin inhibitors, dose response, selectivity assay for Rce1 protease inhibitor project, biochemical, quenched peptide fluorescence, cherry-pick (AID 488789)
CAAX prenyl protease 1 = CAAX prenyl protease 1 (Saccharomyces cerevisiae S288c, UniProt P47154); assay: Ste24 protease inhibitors, dose response, biochemical, S. cerevisiae, plate reader, cherry-pick (AID 488815)
HEK293 [3] = assay: cells; format: functional, cell-based; conditions: Homo sapiens
HEK293 [4] = assay: cells; format: functional, cell-based; conditions: Homo sapiens; remark: listed apart in the source
HEK293 [5] = assay: NOD2 signaling inhibitors in MDP-stimulated cells, cell-based, uHTS, luminescence (AID 2001); format: functional; conditions: Homo sapiens
HEK293 [6] = assay: cells; format: functional, cell-based; conditions: Homo sapiens; remark: listed apart in the source
HEK293 [7] = assay: NOD1 signaling inhibitors, primary screen, cell-based, luminescence, uHTS (AID 1578); format: functional; conditions: Homo sapiens
[8] = molecular target: Nucleotide-binding oligomerization domain-containing protein 2 (Homo sapiens, UniProt Q9HC29); assay: NOD2 signaling inhibitors, cell-based, luminescence, uHTS, HEK293 (AID 1566); format: functional
Sequence of Nucleotide-binding oligomerization domain-containing protein 2 (Q9HC29 whole entry, the tested form may be a part): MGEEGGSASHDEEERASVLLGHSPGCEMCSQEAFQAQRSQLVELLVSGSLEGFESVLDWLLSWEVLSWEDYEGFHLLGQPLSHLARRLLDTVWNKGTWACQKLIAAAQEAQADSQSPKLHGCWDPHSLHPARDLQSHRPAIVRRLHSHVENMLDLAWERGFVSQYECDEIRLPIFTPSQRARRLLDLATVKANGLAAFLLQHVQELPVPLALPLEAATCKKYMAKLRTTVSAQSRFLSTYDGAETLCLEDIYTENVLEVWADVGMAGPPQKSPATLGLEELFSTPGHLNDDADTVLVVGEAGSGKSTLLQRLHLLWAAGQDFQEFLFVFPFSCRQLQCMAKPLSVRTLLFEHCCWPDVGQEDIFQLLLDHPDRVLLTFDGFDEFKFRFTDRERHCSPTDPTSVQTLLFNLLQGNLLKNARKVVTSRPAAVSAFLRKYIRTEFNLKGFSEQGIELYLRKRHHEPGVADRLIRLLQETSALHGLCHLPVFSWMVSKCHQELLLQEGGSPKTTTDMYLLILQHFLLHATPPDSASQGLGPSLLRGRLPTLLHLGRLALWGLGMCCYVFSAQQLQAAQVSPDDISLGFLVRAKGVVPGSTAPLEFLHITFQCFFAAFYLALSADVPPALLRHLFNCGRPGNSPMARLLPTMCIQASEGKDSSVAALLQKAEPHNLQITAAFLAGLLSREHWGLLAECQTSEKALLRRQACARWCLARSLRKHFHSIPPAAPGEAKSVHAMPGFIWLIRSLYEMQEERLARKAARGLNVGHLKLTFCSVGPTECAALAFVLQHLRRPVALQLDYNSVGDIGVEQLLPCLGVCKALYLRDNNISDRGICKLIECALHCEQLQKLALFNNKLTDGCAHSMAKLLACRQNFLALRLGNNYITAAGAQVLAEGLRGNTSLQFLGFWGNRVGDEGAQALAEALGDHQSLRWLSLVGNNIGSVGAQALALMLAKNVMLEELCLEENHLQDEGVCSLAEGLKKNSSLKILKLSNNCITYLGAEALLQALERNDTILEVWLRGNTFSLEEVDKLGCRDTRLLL

Sequence of CAAX prenyl protease 2 (Homo sapiens, UniProt Q9Y256) (Q9Y256 whole entry): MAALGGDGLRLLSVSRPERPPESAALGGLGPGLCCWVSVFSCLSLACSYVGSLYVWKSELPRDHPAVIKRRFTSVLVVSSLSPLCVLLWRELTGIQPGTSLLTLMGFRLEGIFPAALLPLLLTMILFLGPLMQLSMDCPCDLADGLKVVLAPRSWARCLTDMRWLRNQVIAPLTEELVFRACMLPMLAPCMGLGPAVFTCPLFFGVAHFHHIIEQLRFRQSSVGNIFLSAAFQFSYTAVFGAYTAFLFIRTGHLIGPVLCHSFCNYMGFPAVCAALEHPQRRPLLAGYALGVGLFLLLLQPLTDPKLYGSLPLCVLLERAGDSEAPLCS
Sequence of CAAX prenyl protease 2 (Saccharomyces cerevisiae S288c, UniProt Q03530) (Q03530 whole entry): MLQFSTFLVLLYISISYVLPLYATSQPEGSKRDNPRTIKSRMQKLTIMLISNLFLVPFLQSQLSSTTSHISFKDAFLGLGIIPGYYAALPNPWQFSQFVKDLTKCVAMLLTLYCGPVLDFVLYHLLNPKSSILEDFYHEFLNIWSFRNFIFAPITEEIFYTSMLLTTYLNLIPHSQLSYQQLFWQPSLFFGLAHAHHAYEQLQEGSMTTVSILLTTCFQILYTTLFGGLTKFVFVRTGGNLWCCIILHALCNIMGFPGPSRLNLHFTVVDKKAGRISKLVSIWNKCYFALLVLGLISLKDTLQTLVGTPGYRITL
Sequence of CAAX prenyl protease 1 (P47154 whole entry): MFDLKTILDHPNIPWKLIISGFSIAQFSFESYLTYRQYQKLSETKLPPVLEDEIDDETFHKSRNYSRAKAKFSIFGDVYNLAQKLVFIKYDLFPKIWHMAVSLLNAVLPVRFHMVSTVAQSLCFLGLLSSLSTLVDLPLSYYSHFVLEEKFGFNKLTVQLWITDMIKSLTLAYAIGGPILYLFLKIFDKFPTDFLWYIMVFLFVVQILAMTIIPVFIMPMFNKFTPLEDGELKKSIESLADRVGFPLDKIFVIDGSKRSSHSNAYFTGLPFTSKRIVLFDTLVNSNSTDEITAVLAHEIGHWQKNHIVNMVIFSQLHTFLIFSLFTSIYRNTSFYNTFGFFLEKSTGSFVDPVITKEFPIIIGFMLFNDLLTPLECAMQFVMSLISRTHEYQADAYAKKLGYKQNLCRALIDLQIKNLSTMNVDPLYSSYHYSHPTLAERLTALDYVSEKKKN
Sequence of Trypsin (P00761 whole entry): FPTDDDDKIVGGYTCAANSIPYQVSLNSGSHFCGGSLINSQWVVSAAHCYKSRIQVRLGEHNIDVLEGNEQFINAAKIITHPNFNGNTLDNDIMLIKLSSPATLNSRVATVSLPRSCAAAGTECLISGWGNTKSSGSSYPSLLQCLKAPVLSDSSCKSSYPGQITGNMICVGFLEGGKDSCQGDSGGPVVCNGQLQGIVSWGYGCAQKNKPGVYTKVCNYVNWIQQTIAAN

Row | AC50 (CAAX prenyl protease 2 [1]) | AC50 (CAAX prenyl protease 2 [2]) | AC50 (Trypsin) | AC50 (CAAX prenyl protease 1) | SMILES | IC50 (HEK293 [3]) | IC50 (HEK293 [4]) | IC50 (HEK293 [5]) | IC50 (HEK293 [6]) | EC50 (HEK293 [7]) | EC50 [8]
1 | 28.7 µM (active) | 8.22 µM (active) | 15.3 µM (active) | 3.46 µM (active) | Nc1nc(N2CCN(C(=O)c3ccco3)CC2)nc2ccccc12 | – | – | – | – | – | –
2 | – | – | – | – | CC(=O)c1ccc(Nc2nc3ccccc3nc2NS(=O)(=O)c2cccs2)cc1 | > 20 µM (inactive) | 15.6 µM (active) | 9.59 µM (active) | > 20 µM (inactive) | 8.18 µM (active) | 6.47 µM (active)

— ChEMBL document CHEMBL1201862, “PubChem BioAssay data set” (2004)
